Measurements from US20090298864A1, “Methods for Treating Mild Cognitive Impairment” (The Trustees of Columbia University in the City of New York, priority 2005, published 2009).
Entries after “also recorded” stand apart in the source; their conditions may differ.

Experiments:
APP mice = assay: Contextual fear learning (freezing) in APP mouse model of mild cognitive impairment; type: in vivo; settings: single transgenic APP mice, 3-5 months old; rolipram 0.3 mg/kg vs vehicle; freezing measured 24 hours after training; FIG. 1
Method: (§1) The effect of rolipram on contextual fear learning in APP mice was determined according to the methods set forth in Gong et al., J Clin Invest. 114(11):1624-34 (2004), which are described briefly as follows:
(§2) Three to five month old single transgenic APP and WT mice were separated into four groups: APP mice treated with vehicle (“APP control group”), APP mice treated with rolipram at 0.3 mg/kg (“APP rolipram group”), WT mice treated with vehicle (“control vehicle group”), and WT mice treated with rolipram at 0.3 mg/kg (“control rolipram group”). 30 minutes after treatment with either vehicle or rolipram, the mice were placed in a conditioning chamber and subjected to a series of electrical shocks to the feet. Animal behavior was evaluated for three types of response to the shocks (flinching, jumping and screaming) and thresholds for various types of responses were determined for each animal
(§3) Mice were placed in the conditioning chamber for about 2 minutes, then an auditory tone was given for about 30 seconds. During the last two seconds of the tone, the mice were given a foot shock. The mice were left in the conditioning chamber for about 30 seconds, then were returned to their home cages. […]
(§4) To evaluate contextual fear learning, freezing was measured for 5 consecutive minutes in the conditioning chamber 24 hours after training.

WT mice = assay: Contextual fear learning (freezing) in WT control mice; type: in vivo, mouse; settings: rolipram 0.3 mg/kg vs vehicle, freezing measured 24 hours after training, FIG. 1
Method: as §1, §2, §3, §4

[1] = tested on: mouse model of Alzheimer's disease; settings: brief treatment of a mouse model of Alzheimer's disease; cited from earlier work

## COc1ccc(C2CNC(=O)C2)cc1OC1CCCC1 (stereo not drawn) [rolipram]
APP mice
  freezing in the contextual fear conditioning test (contextual fear learning): much higher incidence of freezing; also recorded: improved contextual fear learning
WT mice
  freezing responses in the contextual fear conditioning test: no significant difference
[1]
  memory (long-term potential and contextual learning): improves memory in both long-term potential and contextual learning
